This is an account of results in article PMC7506137, “Selective Phosphodiesterase 1 Inhibitor BTTQ Reduces Blood Pressure in Spontaneously Hypertensive and Dahl Salt Sensitive Rats: Role of Peripheral Vasodilation” (Frontiers in Physiology, 2020).

Values joined by “and” are separate entries in the source; they are usually repeats but may differ in a detail not shown here. Equal entries are not always repeated.

For assay [1], the system named is mesenteric arteries from Dahl SS rats. Description: Myography in isolated mesenteric arteries. Set-up: species or system Rat. The source says: For studies of the mesenteric arteries, rats were anesthetized using 5% isoflurane gas followed by euthanasia by secondary method. Small mesenteric arteries (∼300-μm internal diameter, 350-μm external diameter) supplying the small intestine were carefully excised under a dissecting microscope (Leica; Buffalo, NY, United States) and immersed in a cold physiological salt solution having the following ionic composition (in mM): NaCl (119.0), KCl (4.7), CaCl2 (1.6), NaH2PO4 (1.18), MgSO4 (1.17), NaHCO3 (24.0), D-glucose (5.5), and EDTA (0.03). The arteries were cannulated at the proximal and distal ends using glass micropipettes. The vessels were equilibrated with a 21% O2, 5% CO2, 74% N2 gas mixture at 37°C in the physiological salt solution for 30 min. The intraluminal pressure was maintained at 80 mmHg to approximate in vivo conditions, and the internal diameter of the artery was measured using television microscopy. Responses to vasodilator stimuli (different BTTQ concentrations) were determined in arteries precontracted with 10 μM phenylephrine (PE) and expressed as % increase from basal (PE-precontracted) diameter. Responses of the mesenteric arteries to the endothelium-dependent vasodilator agonist acetylcholine (ACh) were evaluated in SS rats fed a high salt diet (4% NaCl) for 3 weeks and treated with BTTQ (3 mg/kg) p.o. gavage twice daily or vehicle.

The target in assay [2] is T1, Human PDE1A (Homo sapiens, UniProt P54750).
T1 construct: made in house; host or cells: baculovirus-infected insect cells
Description: PDE scintillation proximity enzyme assay. In kind it is biochemical. The following applies: geometric mean (SD, n). The procedure: (§1) All PDE proteins were expressed in baculoviral infected insect cells using standard methods [pFastBac, pFastBac Dual (Invitrogen), pIEX4 (Novagen)]. See Supplementary Table 1 for DNA sequences, construct boundaries, affinity tags, and expression vectors. HIS6 tagged PDE proteins were purified using Ni-NTA agarose (Qiagen) followed by size exclusion chromatography on a Superdex 200 column (GE Healthcare) in storage buffer (20 mM Tris-HCl, pH 7.5, 150 mM NaCl, 10% Glycerol). FLAG-tagged PDE proteins including the PDE6A/6B heterodimer were purified using anti-FLAG M2-agarose (Sigma-Aldrich), after purification through NiNTA column chromatography and eluted in storage buffer (50 mM Tris-HCl, pH 7.5, 150 mM NaCl, 10% Glycerol, 0.1 mg/ml Flag peptide). All purified proteins were stored at −80°C in small aliquots.
(§2) All PDE enzyme activities were measured with a yittrium silicate based scintillation proximity assay that detects radioactive nucleotide monophosphates but not cyclic monophosphates. Assays are conducted in a total volume of 50 μl in 384 well plates (3706, Corning): comprised of 24 μl enzyme, 1 μl compound, and 25 μl of cyclic nucleotide. The general assay buffer consists of 50 mM Tris-HCl (pH 7.5) and 0.1% (w/v) bovine serum albumin (Fatty Acid Free, Sigma-Aldrich). Enzyme concentrations, substrate concentrations, and various PDE-specific buffer additives are described in Supplementary Table 1. Compounds to be tested are diluted in pure dimethyl sulfoxide (DMSO) using 10-point concentration-response curves, and 1 μl is acoustically dispensed into assay plates using the Echo555 (LabCyte). Maximal compound concentration in the reaction mixture is either 10 or 100 μM. Compounds at the appropriate concentration are pre-incubated with either of the PDE enzymes for 30 min before the reaction is started by the addition of substrate ([8-^3H]-cAMP, 20.7 Ci/mmol or [8-^3H]-cGMP; 6.5 Ci/mmol, Perkin Elmer). Reactions are allowed to proceed for 60 min at room temperature before quenching. Next, reactions are stopped by the addition of 400 μg/per well SPA beads (RPNQ0150, Perkin Elmer) and a potent non-selective PDE inhibitor to quench the reaction. Bead bound radioactivity (product) is quantified 12 h later a Microbeta counter (Perkin Elmer). Data is normalized to % inhibition using standard methods ([Campbell et al., 2004]), and IC50 values were plotted using PRISM (GraphPad Software) using the 4 parameter logistic equation ([Campbell et al., 2004]). Data for potency values are expressed as the geometric mean and arithmetic standard deviation.
In general terms: Scintillation proximity formats need no separation of bound from free tracer.

Assay [3] concerns the target T2, Human PDE11A (Homo sapiens, UniProt Q9HCR9).
T2 construct: made in house; host or cells: baculovirus-infected insect cells
Description: PDE scintillation proximity enzyme assay. In kind it is biochemical. As to conditions: geometric mean (SD, n). The procedure: as §1, §2

The target in assay [4] is T3, Human PDE1C (Homo sapiens, UniProt Q14123).
T3 construct: made in house; host or cells: baculovirus-infected insect cells
Description: PDE scintillation proximity enzyme assay. Format: biochemical. As to conditions: geometric mean (SD, n). As for the experimental part:
as §1, §2

Assay [5] concerns the target T4, Human PDE7B (Homo sapiens, UniProt Q9NP56).
T4 construct: made in house; host or cells: baculovirus-infected insect cells
Kind of assay: PDE scintillation proximity enzyme assay. Format: biochemical. As to conditions: geometric mean (SD, n). The procedure: as §1, §2

Assay [6] concerns the target T5, Human PDE1B (Homo sapiens, UniProt Q01064).
T5 construct: made in house; host or cells: baculovirus-infected insect cells
Description: PDE scintillation proximity enzyme assay. In kind it is biochemical. The following applies: geometric mean (SD, n). The procedure:
as §1, §2

Assay [7] has as its target T6, Human PDE4D (Homo sapiens, UniProt Q08499).
T6 construct: made in house; host or cells: baculovirus-infected insect cells
Kind of assay: PDE scintillation proximity enzyme assay. The following applies: geometric mean (SD, n). Format: biochemical. As for the experimental part:
as §1, §2

T5 sequence (Q01064 whole entry): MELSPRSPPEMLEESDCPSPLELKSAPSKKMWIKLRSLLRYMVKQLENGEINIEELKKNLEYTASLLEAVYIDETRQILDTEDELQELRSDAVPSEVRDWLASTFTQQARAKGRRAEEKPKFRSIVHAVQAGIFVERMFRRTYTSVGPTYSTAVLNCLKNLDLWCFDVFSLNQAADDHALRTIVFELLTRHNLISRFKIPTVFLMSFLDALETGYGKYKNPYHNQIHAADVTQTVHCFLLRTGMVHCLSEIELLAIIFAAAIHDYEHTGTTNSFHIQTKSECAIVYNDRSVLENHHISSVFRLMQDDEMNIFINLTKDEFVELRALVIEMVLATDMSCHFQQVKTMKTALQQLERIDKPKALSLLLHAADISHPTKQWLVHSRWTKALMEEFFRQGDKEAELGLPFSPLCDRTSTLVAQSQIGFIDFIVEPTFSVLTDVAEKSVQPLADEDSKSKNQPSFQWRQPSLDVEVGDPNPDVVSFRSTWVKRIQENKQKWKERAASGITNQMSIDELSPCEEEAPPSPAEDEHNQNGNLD
T4 sequence (Q9NP56 whole entry): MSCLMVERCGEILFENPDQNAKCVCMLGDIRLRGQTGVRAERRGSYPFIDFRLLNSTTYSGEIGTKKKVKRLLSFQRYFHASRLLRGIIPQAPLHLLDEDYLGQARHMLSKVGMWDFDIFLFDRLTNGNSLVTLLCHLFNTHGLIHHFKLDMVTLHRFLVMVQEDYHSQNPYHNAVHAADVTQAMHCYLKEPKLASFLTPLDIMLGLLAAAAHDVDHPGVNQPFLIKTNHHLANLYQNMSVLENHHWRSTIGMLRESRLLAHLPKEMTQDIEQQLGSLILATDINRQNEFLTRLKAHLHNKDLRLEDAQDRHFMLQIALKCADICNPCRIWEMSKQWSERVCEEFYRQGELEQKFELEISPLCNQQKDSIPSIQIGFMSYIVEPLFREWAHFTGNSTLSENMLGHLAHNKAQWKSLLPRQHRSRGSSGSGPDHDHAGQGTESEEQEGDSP
T1 sequence (P54750 whole entry): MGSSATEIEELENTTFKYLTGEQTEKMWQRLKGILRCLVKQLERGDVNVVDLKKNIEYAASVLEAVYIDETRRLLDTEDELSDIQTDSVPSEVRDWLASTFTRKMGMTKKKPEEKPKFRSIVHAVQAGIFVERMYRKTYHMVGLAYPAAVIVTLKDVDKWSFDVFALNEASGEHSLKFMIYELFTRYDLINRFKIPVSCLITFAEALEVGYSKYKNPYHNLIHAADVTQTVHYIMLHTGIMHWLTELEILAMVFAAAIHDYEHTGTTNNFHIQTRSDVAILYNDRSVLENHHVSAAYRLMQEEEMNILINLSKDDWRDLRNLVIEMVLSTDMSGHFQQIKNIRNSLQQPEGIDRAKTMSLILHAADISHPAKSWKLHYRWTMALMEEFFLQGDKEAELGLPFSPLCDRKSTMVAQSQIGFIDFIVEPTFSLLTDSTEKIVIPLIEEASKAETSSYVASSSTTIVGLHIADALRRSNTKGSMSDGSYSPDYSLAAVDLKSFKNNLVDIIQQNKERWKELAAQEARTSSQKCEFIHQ
T2 sequence (Q9HCR9 whole entry): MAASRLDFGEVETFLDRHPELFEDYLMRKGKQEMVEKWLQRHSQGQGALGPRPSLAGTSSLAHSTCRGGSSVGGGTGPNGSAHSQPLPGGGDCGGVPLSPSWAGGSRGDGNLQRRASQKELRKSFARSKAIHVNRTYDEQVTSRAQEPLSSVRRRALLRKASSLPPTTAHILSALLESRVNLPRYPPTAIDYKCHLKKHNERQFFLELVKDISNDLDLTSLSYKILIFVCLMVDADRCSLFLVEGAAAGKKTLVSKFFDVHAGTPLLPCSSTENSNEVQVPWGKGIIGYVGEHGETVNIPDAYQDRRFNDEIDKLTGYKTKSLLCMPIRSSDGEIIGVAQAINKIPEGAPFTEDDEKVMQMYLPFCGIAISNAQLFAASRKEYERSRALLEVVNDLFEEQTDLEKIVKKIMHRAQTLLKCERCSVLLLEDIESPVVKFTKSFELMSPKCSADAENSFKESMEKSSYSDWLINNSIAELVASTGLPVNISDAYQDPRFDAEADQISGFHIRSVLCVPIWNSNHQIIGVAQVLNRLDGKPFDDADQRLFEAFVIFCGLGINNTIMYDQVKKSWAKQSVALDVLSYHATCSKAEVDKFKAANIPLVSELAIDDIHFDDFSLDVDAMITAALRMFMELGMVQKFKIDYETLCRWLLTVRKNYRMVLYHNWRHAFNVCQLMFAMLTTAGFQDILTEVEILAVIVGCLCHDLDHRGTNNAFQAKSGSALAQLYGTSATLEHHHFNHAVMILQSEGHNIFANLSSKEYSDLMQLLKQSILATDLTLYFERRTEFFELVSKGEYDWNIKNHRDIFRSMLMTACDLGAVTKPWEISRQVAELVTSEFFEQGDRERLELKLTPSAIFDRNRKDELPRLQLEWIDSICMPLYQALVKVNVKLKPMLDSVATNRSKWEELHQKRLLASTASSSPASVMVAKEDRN
T6 sequence (Q08499 whole entry): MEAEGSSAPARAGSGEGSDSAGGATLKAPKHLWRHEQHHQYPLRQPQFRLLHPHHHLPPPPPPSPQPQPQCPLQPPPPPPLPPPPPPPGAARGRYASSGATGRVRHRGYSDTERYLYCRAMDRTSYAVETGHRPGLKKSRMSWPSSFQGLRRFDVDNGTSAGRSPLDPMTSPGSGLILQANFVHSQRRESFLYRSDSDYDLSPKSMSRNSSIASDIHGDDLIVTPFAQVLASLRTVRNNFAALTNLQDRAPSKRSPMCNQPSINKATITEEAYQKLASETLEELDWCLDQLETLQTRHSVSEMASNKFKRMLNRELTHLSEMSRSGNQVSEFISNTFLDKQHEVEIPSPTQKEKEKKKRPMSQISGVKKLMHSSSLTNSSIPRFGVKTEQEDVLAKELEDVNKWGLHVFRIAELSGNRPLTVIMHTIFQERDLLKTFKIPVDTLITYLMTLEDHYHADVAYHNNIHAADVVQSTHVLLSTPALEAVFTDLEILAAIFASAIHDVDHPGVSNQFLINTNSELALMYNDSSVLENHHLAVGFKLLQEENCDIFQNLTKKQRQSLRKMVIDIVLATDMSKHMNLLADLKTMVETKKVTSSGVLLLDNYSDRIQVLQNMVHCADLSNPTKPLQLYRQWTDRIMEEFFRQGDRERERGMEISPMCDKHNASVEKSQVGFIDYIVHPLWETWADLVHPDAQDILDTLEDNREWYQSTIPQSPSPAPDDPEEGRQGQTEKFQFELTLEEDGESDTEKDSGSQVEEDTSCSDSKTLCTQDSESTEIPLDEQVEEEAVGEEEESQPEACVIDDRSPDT
T3 sequence (Q14123 whole entry): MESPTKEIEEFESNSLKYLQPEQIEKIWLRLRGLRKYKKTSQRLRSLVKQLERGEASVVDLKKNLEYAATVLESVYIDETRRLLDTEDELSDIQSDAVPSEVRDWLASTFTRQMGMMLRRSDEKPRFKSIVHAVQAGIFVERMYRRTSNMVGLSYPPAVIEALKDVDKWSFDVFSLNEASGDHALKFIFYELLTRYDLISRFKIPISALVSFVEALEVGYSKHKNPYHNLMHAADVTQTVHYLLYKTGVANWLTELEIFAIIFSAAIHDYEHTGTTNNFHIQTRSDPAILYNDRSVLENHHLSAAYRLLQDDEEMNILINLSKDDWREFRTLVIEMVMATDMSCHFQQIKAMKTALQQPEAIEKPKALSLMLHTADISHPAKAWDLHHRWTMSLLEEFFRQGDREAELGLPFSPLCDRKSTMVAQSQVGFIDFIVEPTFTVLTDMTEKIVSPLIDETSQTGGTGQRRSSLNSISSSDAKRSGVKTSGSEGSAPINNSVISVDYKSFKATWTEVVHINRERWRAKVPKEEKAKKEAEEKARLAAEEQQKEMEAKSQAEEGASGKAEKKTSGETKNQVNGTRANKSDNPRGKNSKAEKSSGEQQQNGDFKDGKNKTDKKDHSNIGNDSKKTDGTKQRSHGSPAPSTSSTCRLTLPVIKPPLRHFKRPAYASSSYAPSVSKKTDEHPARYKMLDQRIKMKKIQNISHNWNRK

`O=c1c2nnc(C3(C4CC4)CC3)n2c2c(n1CC1CC1)CCCC2` [BTTQ, 1-[1,1′-bi(cyclopropyl)-1-yl]-5-(cyclopropylmethyl)-6,7,8,9-tetrahydro[1,2,4]triazolo[4,3-A]quinoxaline-4(5H)-one]: the “relaxation, % of the initial fully relaxed diameter” value in assay [1] (1 mM, arteries pre-constricted with 10 μM phenylephrine) is reported as “about 92%”. Further, the “acetylcholine-induced vasorelaxation, treated vs vehicle group” value in assay [1] (arteries from Dahl SS rats treated by oral gavage (3 mg/kg twice daily), high salt diet 21 days) is on record as “no significant difference”. For the same compound, the “relaxation of mesenteric arteries compared to the vehicle” value in assay [1] (escalating concentrations, pre-constricted with 10 μM phenylephrine) is reported as “concentration-dependent relaxation”. The IC50 (usually the concentration needed to halve the response being measured) in assay [2] was 1 nM; in assay [3], 2400 nM; in assay [4], 0.14 nM; in assay [5], 1600 nM; in assay [6] it was 0.5 nM and 0.45 nM; in assay [7], 12000 nM.
